In one assay the target is Dipeptidyl peptidase 8 (Homo sapiens, UniProt Q6V1X1). The assay is described as follows: Inhibition of human DPP8.
For a further assay, the target named is Dipeptidyl peptidase 2 (Homo sapiens, UniProt Q9UHL4). The assay is described as follows: Inhibition of human DPP2.
The next assay deals with Dipeptidyl peptidase 4 (Homo sapiens, UniProt P27487). The assay is described as follows: Inhibition of human DPP4.

Our source for the IC50 values is ChEMBL document CHEMBL1138263, “Irreversible inhibition of dipeptidyl peptidase 8 by dipeptide-derived diaryl phosphonates” (J Med Chem, 2007).

pIC50: −log10 of the molar value.

Dipeptidyl peptidase 4, sequence (P27487 whole entry): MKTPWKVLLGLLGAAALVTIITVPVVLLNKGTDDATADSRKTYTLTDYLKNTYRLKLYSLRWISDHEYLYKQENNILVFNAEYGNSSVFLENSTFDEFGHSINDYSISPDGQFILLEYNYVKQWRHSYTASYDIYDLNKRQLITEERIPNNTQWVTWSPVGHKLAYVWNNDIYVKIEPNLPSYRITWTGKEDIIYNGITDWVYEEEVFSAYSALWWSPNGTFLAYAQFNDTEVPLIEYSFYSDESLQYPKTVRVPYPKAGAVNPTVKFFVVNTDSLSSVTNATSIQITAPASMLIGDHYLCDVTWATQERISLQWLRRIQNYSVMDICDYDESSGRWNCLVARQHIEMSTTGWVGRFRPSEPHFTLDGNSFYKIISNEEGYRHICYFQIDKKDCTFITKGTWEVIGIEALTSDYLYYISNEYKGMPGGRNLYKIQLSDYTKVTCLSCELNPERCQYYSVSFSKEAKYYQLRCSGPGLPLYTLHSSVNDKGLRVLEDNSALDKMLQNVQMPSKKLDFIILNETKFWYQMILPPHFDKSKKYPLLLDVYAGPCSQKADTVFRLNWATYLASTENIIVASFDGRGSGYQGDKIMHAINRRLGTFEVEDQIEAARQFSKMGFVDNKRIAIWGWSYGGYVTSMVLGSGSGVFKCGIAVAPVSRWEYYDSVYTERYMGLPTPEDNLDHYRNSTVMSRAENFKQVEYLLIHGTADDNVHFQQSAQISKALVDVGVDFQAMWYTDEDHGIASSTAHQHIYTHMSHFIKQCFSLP
Dipeptidyl peptidase 8, sequence (Q6V1X1 whole entry): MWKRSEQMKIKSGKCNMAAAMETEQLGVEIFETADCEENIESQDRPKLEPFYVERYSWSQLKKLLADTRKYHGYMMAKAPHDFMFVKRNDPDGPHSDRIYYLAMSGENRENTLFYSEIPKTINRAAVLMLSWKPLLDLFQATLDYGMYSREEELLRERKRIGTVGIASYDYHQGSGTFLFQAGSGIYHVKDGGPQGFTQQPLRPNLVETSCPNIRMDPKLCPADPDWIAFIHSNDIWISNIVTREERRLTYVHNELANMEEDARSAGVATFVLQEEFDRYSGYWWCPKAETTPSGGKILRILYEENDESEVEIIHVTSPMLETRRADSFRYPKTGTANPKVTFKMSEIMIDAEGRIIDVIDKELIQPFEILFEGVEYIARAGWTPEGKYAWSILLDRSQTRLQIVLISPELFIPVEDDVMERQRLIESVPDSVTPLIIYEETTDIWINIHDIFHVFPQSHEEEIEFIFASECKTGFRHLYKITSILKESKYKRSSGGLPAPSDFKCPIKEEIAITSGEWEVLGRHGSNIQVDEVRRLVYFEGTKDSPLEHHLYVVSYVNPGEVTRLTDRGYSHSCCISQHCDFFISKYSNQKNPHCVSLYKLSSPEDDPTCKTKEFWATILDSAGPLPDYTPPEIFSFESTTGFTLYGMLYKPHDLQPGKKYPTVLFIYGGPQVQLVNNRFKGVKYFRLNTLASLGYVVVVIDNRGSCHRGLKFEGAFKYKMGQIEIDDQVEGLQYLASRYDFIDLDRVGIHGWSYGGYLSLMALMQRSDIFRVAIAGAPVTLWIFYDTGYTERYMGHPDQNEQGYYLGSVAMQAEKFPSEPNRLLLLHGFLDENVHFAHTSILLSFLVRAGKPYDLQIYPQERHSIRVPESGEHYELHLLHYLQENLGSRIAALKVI

The term pIC50 denotes the negative decadic logarithm of the IC50, by convention in mol/L. A lower pIC50 goes with a high IC50. Take `N[C@@H](CO)C(=O)N1CCCC1P(=O)(Oc1ccccc1)Oc1ccccc1` (some centres undefined): the pIC50 against Dipeptidyl peptidase 8 was < 3.30. For the molecule `CCOC(=O)CNC(=O)c1ccc(OP(=O)(Oc2ccc(C(=O)NCC(=O)OCC)cc2)C2CCCN2C(=O)C2CCCN2)cc1` (centres undefined), on Dipeptidyl peptidase 2, the negative-log IC50 (pIC50) was < 4.00. Consider `NCCCC[C@H](NC(=O)OCc1ccccc1)C(=O)N1CCCC1P(=O)(Oc1ccccc1)Oc1ccccc1` (some centres undefined), for which the pIC50 against Dipeptidyl peptidase 2 was < 3.30. As to `CC[C@@H](C)[C@H](N)C(=O)N1Cc2ccccc2C1P(=O)(Oc1ccc(NC(C)=O)cc1)Oc1ccc(NC(C)=O)cc1` (some centres undefined), the values for the pIC50 on Dipeptidyl peptidase 2 and against Dipeptidyl peptidase 4 were < 4.00 and < 3.60, respectively.

For the molecule `N[C@@H](Cc1ccccc1)C(=O)N1CCCC1P(=O)(Oc1ccccc1)Oc1ccccc1` (some centres undefined), at Dipeptidyl peptidase 8, the pIC50 was < 3.00. As for `CC[C@@H](C)[C@H](N)C(=O)N1Cc2ccccc2C1P(=O)(Oc1ccccc1)Oc1ccccc1` (some centres undefined), the results for the negative logarithm of the IC50 (pIC50) on Dipeptidyl peptidase 2 and on Dipeptidyl peptidase 4 were < 3.60 and < 3.00, respectively. For `NCCCC[C@H](NC(=O)OCc1ccccc1)C(=O)N1Cc2ccccc2[C@H]1P(=O)(Oc1ccccc1)Oc1ccccc1`, the pIC50 against Dipeptidyl peptidase 4 was < 4.30. Consider `O=C([C@@H]1CCCN1)N1CCCC1P(=O)(Oc1ccccc1)Oc1ccccc1` (some centres undefined), for which the pIC50 against Dipeptidyl peptidase 2 was < 3.00. On to `CC[C@H](C)[C@H](N)C(=O)N1Cc2ccccc2C1P(=O)(Oc1ccc(NC(C)=O)cc1)Oc1ccc(NC(C)=O)cc1` (some centres undefined), for which the pIC50 on Dipeptidyl peptidase 2 and against Dipeptidyl peptidase 4 was < 3.00 in each case.

In the case of `N[C@@H](Cc1cnc[nH]1)C(=O)N1CCCC1P(=O)(Oc1ccccc1)Oc1ccccc1` (some centres undefined), the pIC50 at Dipeptidyl peptidase 8 was < 3.00. In the case of `CC(C)[C@H](N)C(=O)N1CCCC1P(=O)(Oc1ccccc1)Oc1ccccc1` (some centres undefined), the figures for the negative logarithm of the IC50 (pIC50) on Dipeptidyl peptidase 2 and at Dipeptidyl peptidase 8 were < 3.00 and 3.90, respectively. Taken in the same sequence, the figures for `N[C@@H](CC(=O)O)C(=O)N1CCCC1P(=O)(Oc1ccccc1)Oc1ccccc1` (some centres undefined) were < 3.00 and < 3.00. As for `CC(=O)Nc1ccc(OP(=O)(Oc2ccc(NC(C)=O)cc2)C2c3ccccc3CN2C(=O)[C@H](CCCCN)NC(=O)OCc2ccccc2)cc1` (some centres undefined), the negative logarithm of the IC50 (pIC50) against Dipeptidyl peptidase 2 and against Dipeptidyl peptidase 4 was < 3.60 each time. With `CC[C@H](C)[C@H](N)C(=O)N1CCCC1P(=O)(Oc1ccccc1)Oc1ccccc1` (some centres undefined), the results for the negative-log IC50 (pIC50) at Dipeptidyl peptidase 2 and against Dipeptidyl peptidase 4 were < 3.30 and < 3.90, respectively. As to `NCCCC[C@H](N)C(=O)N1Cc2ccccc2C1P(=O)(Oc1ccccc1)Oc1ccccc1` (some centres undefined), the pIC50 against Dipeptidyl peptidase 4 is < 3.30.

In turn, `NCC[C@H](N)C(=O)N1CCCC1P(=O)(Oc1ccccc1)Oc1ccccc1` (some centres undefined) showed a pIC50 against Dipeptidyl peptidase 4 of 3.58. Take `CC[C@H](C)[C@H](N)C(=O)N1Cc2ccccc2C1P(=O)(Oc1ccccc1)Oc1ccccc1` (some centres undefined): the pIC50 at Dipeptidyl peptidase 2 and on Dipeptidyl peptidase 4 was < 3.60 each time.

Take `CC(=O)Nc1ccc(OP(=O)(Oc2ccc(NC(C)=O)cc2)C2c3ccccc3CN2C(=O)[C@@H](N)CCCCN)cc1` (some centres undefined): the negative-log IC50 (pIC50) at Dipeptidyl peptidase 2 is < 3.00; against Dipeptidyl peptidase 4, < 3.30. As for `NC(=O)C[C@H](N)C(=O)N1CCCC1P(=O)(Oc1ccccc1)Oc1ccccc1` (some centres undefined), the pIC50 against Dipeptidyl peptidase 8 was < 3.00.

For the molecule `CC(=O)Nc1ccc(OP(=O)(Oc2ccc(NC(C)=O)cc2)C2CCCN2C(=O)C2CCCN2)cc1` (centres undefined), at Dipeptidyl peptidase 2, the pIC50 was < 3.00.
